# Structures can show the parent of a compound that is named as a salt. Where two headings read alike, the source gives them in different places.
# Experiments:
# S.aureus BB5703 = test: In vitro antibacterial activity, agar plate dilution method; format: cell-based; settings: Staphylococcus aureus, MH agar, 10⁶CFU/ml, 16 hours at 37°C, read-out: Minimum inhibitory concentration (MIC) S.aureus BB5703
# Experimental: (§1) One platinum loopful portions of a test strain (quantity of each strain inoculated : 10⁶CFU/ml) cultured overnight in Mueller Hinton broth were inoculated respectively into MH agars containing an antibacterial agent in various concentrations. After 16 hours culture at 37°C, minimum inhibitory concentration (MIC: µg/ml) was measured.
# S.aureus BB5769 = test: as above; format: cell-based; settings: Staphylococcus aureus, MH agar, 10⁶CFU/ml, 16 hours at 37°C, read-out: Minimum inhibitory concentration (MIC) S.aureus BB5769
# Experimental: as §1
# S.aureus JS1 = test: as above; format: cell-based; settings: Staphylococcus aureus, β-lactamase-producing bacterium, MH agar, 10⁶CFU/ml, 16 hours at 37°C, read-out: Minimum inhibitory concentration (MIC) S.aureus JS1
# Experimental: as §1
# P388/V = test: Proliferation inhibition, drug-sensitive P388 cells (MTT method); format: cell-based, murine; settings: Mus musculus, P388, 72 h, 3 days culture, read-out: IC₅₀ P388/V
# Experimental: (§2) Proliferation inhibition effects againt P388/multiple drug - resistant cells were measured using vincristine and adriamycin as comparative compounds.
# (§3) In this experiment, a drug - sensitive strain (P388/S) of a murine leukemia cell P388 and a drug - resistant strain (P388/VCR, T. Turuo, H. Iida, S. Tsukagoshi, et al., Cancer Research 42, 4730 - 4733, 1982) were suspended respectively in RPMI 1640 media containing a drug in various concentrations, 10 % fetal bovine serum and 20 µ M β - mercaptoethanol, respectively, and seeded in a 96 - well microtest plate in a number of 10⁴ cells/well, and cultured at 37°C under CO₂ gas for 3 days. Calculation of 50% proliferation inhibition concentration (IC₅₀) was made by the MTT method (M. C. Alley, D. A. Scudiero, A. Monks, et al., Cancer Research 48, 589 - 601, 1988).
# P388/VCR = test: Proliferation inhibition, multiple drug-resistant P388 cells (MTT method); format: cell-based, murine; settings: Mus musculus, 72 h, 3 days culture, read-out: IC₅₀ P388/VCR
# Experimental: as §2, §3
# DNA topoisomerase I = biological target: T1, DNA topoisomerase I (Mus musculus, UniProt Q04750); test: DNA topoisomerase inhibition activity (DNA relaxation, agarose-gel electrophoresis); format: biochemical, murine; settings: relaxation of supercoiled pBR 322 plasmid DNA, 37°C for 10 minutes, enzyme from L1210 nuclei; read-out: IC₅₀ DNA topoisomerase I (converted)
# T1 construct: obtained by purifying an extract from the nuclei of cells of L1210 murine leukemia by column chromatography; endogenous in cells; host or cells: L1210 murine leukemia cells (nuclear extract, purified on hydroxylapatite / phosphocellulose columns)
# T1 sequence (Q04750 1-767): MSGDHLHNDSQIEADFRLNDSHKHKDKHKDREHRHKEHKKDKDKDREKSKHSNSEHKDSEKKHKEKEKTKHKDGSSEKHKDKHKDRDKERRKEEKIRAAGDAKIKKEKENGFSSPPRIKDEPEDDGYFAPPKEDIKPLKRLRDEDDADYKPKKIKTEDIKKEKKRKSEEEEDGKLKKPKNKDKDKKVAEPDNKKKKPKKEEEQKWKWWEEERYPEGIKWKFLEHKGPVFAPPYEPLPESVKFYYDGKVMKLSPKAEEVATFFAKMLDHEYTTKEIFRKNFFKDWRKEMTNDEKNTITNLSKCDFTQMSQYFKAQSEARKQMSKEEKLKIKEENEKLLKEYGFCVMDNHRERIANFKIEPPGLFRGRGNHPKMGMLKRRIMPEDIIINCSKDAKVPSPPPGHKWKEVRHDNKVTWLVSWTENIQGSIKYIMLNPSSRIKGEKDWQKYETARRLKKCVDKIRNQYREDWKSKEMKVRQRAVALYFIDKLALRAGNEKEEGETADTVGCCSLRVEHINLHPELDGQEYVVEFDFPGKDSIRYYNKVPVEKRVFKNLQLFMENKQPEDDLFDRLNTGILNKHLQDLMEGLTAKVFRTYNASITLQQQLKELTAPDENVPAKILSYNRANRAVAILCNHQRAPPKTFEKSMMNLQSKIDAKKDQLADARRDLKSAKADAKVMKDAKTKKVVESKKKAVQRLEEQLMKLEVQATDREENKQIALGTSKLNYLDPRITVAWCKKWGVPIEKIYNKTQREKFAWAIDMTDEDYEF
# Experimental: (§4) In this experiment, as enzymes were used DNA topoisomerase I and DNA topoisomerase II obtained by purifying an extract from the nuclei of cells of L1210 murine leukemia by column chromatography using hydroxylapatite and phosphocellulose, respectively, and as a DNA was used supercoiled pBR 322 plasmid DNA.
# (§5) Measurement of inhibition effect was made by the method disclosed in a literature, i. e. Okura et al., Biochem. Biophys. Res. Comm. 157, 183 - 189, 1988, namely by warming at 37°C for 10 minutes the supercoiled DNA in DNA topoisomerase I or DNA topoisomerase II solutions containing a drug in various concentrations, and then detecting the resultant topology changes of the DNA as changes of the electrophoretic images in agarose - gel electrophoresis.
# DNA topoisomerase II = test: as above; format: biochemical, murine; settings: relaxation of supercoiled pBR 322 plasmid DNA, 37°C for 10 minutes, enzyme from L1210 nuclei
# Experimental: as §4, §5
# L1210 cells = test: In vitro cytotoxicity against L1210 murine leukemia (proliferation inhibition); format: cell-based; settings: Mus musculus, read-out: IC₅₀
# Experimental: In this experiment, respective 2 × 10⁴ L1210 cells were cultured at 37°C under 5% CO₂ gas for 3 days in respective RPMI 1640 media containing a drug in various concentrations and 10 % fetal bovine serum, and the numbers of the cells after the culture were counted using a Coulter counter.
# L1210 = test: Life-span prolonging effect on L1210 leukemia-bearing mice; format: in vivo, CDF₁ mice; settings: for effect at an administration quantity of 0.02 mg/kg: life-span prolongation, 0.02 mg/kg intraperitoneal
# Experimental: (§6) In this experiment, 10⁶ L1210 cells or 10⁴ P388 cells were intraperitoneally transplanted into CDF₁ mice (♀, 5 weeks old), a drug in the various concentrations was intraperitoneally injected once a day for continuous 10 days from the day after the transplantation, and survival periods after the tumor transplantation were recorded.
# P388 = test: Life-span prolonging effect on P388 leukemia-bearing mice; format: in vivo, CDF₁ mice
# Experimental: as §6
# [1] = dose 0.020 mg/kg intraperitoneally once a day for 10 days
# [2] = dose 0.078 mg/kg intraperitoneally once a day for 10 days
# [3] = dose 0.313 mg/kg intraperitoneally once a day for 10 days
# [4] = 72 h, L1210 cells, cultured 3 days, Coulter counter
smiles,measurement,setting,value
"N[C@@H]1C=CC[C@@H]2CN(c3c(F)cc4c(=O)c(C(=O)O)cn(C5CC5)c4c3F)C[C@@H]21.O=C(O)C(F)(F)F (relative stereo) [Compound of Ex.1, 7 - [(1R*, 2R*, 6S*) - 2 - amino - 8 - azabicyclo [4.3.0]non - 3 - en - 8 - yl] - 1 - cyclopropyl - 6, 8 - difluoro - 1, 4 - dihydro-4 - oxo - 3 - quinolinecarboxylic acid trifluoroacetate]",MIC,S.aureus BB5703,< 6 ng/mL
same,MIC,S.aureus BB5769,< 6 ng/mL
same,MIC,S.aureus JS1,< 6 ng/mL
"COc1cccc2c1C(=O)c1c(O)c3c(c(O)c1C2=O)C[C@@](O)(C(=O)CO)C[C@@H]3O[C@H]1C[C@H](N)[C@H](O)[C@H](C)O1 [Adriamycin, adriamycin]",IC50,P388/V,21 ng/mL
same,IC50,P388/VCR,63 ng/mL
"CN[C@@H]1C=CC[C@@H]2CN(c3c(F)cc4c(=O)c(C(=O)O)cn(C5CC5)c4c3F)C[C@@H]21.O=C(O)C(F)(F)F (relative stereo) [Compound of Ex.2, 1 - cyclopropyl - 6, 8 - difluoro - 1, 4 - dihydro - 7 - [(1R*, 2R*, 6S*) - 2 - (N - methylamino) - 8 - azabicyclo [4.3.0]non - 3 - en - 8 - yl] - 4 - oxo - 3 - quinolinecarboxylic acid trifluoroacetate]",MIC,S.aureus BB5703,< 6 ng/mL
same,MIC,S.aureus BB5769,< 6 ng/mL
same,MIC,S.aureus JS1,< 6 ng/mL
"COc1c(N2C[C@H]3CC=C[C@@H](N)[C@H]3C2)c(F)cc2c(=O)c(C(=O)O)cn(C3CC3)c12 (relative stereo) [Compound of Ex.11, (-) - 7 - [(1R*, 2R*, 6S*) - 2 - amino - 8 - azabicyclo [4.3.0]non - 3 - en - 8 - yl] - 1 - cyclopropyl - 6 - fluoro - 1, 4 - dihydro - 8 - methoxy - 4 - oxo - 3 - quinolinecarboxlic acid hydrochloride]",IC50,DNA topoisomerase I,3.02 mM
same,IC₅₀ DNA topoisomerase II,DNA topoisomerase II,2 µg/mL
same,IC50,"L1210 cells; L1210, 72 h",32 ng/mL
same,Mean survival days L1210,L1210; [1],25.8 days
same,T/C % L1210,L1210; [1],188%
same,Mean survival days L1210,L1210; [2],> 50.8 days
same,T/C % L1210,L1210; [2],371%
same,Mean survival days L1210,L1210; [3],16.4 days
same,T/C % L1210,L1210; [3],120%
same,effect at an administration quantity of 0.02 mg/kg,L1210,effective
"COc1cc([C@@H]2c3cc4c(cc3[C@@H](O[C@@H]3O[C@@H]5CO[C@@H](C)O[C@H]5[C@H](O)[C@H]3O)[C@H]3COC(=O)[C@H]23)OCO4)cc(OC)c1O [Etoposide, etoposide, reference compound]",IC50,L1210 cells; [4],21 ng/mL
same,Mean survival days L1210,L1210; [1],14.2 days
same,T/C % L1210,L1210; [1],104%
same,Mean survival days L1210,L1210; [2],22.8 days
same,T/C % L1210,L1210; [2],166%
same,Mean survival days L1210,L1210; [3],31.4 days
same,T/C % L1210,L1210; [3],229%
same,effect at an administration quantity of 0.02 mg/kg,L1210,no effect
same,Mean survival days P388,P388; [1],12.8 days
same,T/C % P388,P388; [1],114%
same,Mean survival days P388,P388; [2],16.6 days
same,T/C % P388,P388; [2],148%
same,Mean survival days P388,P388; [3],22.2 days
same,T/C % P388,P388; [3],198%
"CC[C@]1(O)C[C@H]2CN(CCc3c([nH]c4ccccc34)[C@@](C(=O)OC)(c3cc4c(cc3OC)N(C=O)[C@H]3[C@@](O)(C(=O)OC)[C@H](OC(C)=O)[C@]5(CC)C=CCN6CC[C@]43[C@@H]65)C2)C1 [Vincristine, vincristine]",IC50,P388/V,0.32 ng/mL
same,IC50,P388/VCR,19 ng/mL
"Cl.Nc1c(F)c(N2C[C@H]3CC=C[C@@H](N)[C@H]3C2)c(F)c2c1c(=O)c(C(=O)O)cn2C1CC1 (single isomer, unassigned) [Compound of Ex.13, (-) - 5 - amino - 7 - [(1R*, 2R*, 6S*) 2 - amino - 8 - azabicyclo [4.3.0]non - 3 - en - 8 - yl] - 1 - cyclopropyl - 6, 8 - difluoro - 1, 4 - dihydro - 4 - oxo - 3 - quinolinecarboxylic acid hydrochloride]",IC50,DNA topoisomerase I,0.221 mM
same,IC₅₀ DNA topoisomerase II,DNA topoisomerase II,4 µg/mL
same,IC50,L1210 cells; [4],1.5 ng/mL
same,MIC,S.aureus BB5703,< 6 ng/mL
same,MIC,S.aureus BB5769,< 6 ng/mL
same,MIC,S.aureus JS1,< 6 ng/mL
"CC[C@@]1(O)C(=O)OCc2c1cc1n(c2=O)Cc2cc3ccccc3nc2-1 [Camptothecin, camptothecin, reference compound]",IC₅₀ DNA topoisomerase II,DNA topoisomerase II,> 10 µg/mL
same,IC50,L1210 cells; [4],40 ng/mL
